Test results taken from patent US20260317304A1, “TEAD INHIBITORS AND METHODS OF USE” (Sporos BioDiscovery, Inc., priority 2022, published 2026).
pEC50, pIC50: −log10 of the molar value.

Assays:
NCI-H226 cells [1] = assay: Proliferation and cell viability assay, CellTiter-Glo 2.0 (CTG); format: cell-based, human; settings: 144 hrs
Protocol: (§1) Cell proliferation of a TEAD dependent NF2-null mesothelioma cell line, NCI-H226 was assayed using two different protocols. Results were confirmed in two different TEAD-non-dependent lung cancer cell lines, H23 and H28, were used as non-responsive controls, as indicated:
a) CellTiter-Glo® 2.0 (Promega #G9243). The effect of the TEAD inhibitors disclosed herein on cell proliferation was determined in TEAD1-genetically dependent cell line NCI-H226 (responder cell line) and TEAD-independent cell lines (NCI-H23, HEK293T), as non-responder, negative control. Cells were seeded in 96-well plates (Thermo Scientific #167008) in growth media (RPMI-1640, Gibco #61870-010) for NCI-H226 and NCI-H23 or DMEM (Gibco #31966-021, HEK293T) with […] Heat Inactivated Fetal Bovine Serum (Gibco 10500-064) at 800 (NCI-H226 and HEK-293T) or 2000 (NCI-H23) cells per well at 37° C., […], humidified incubator; 24 hours later, fresh growth media containing test compound or DMSO vehicle was added and incubated with the cells for 144 hrs. TEAD inhibitor stocks were made at a 1000× fold excess in DMSO, and a dose response test compound dose range of 10,000 to 0.1 nM was used. Each treatment was carried out in triplicate. After 144 hrs of treatment, relative cell viability numbers were determined using the CellTiter-Glo 2.0 assay following the manufacturer's instructions. Test plates and CellTiter-Glo 2.0 reagent were allowed to equilibrate to room temperature. CellTiter-Glo 2.0 reagent was added at 1:1 reagent to media ratio to the 96-well cell plates, plates were placed on a plate shaker for 2 minutes and then incubated at room temperature for a further 10 minutes to allow complete cell lysis to occur. The mix was then transferred to white, 96-well luminometer assay plates (Greiner Bio One #655075). Luminescence was quantified using a CLARIOStar Plus multi-mode plate reader (BMG Labtech) in luminescence detection mode with the recommended settings (ultra-Glo pre-set: emission 545-50 nm with autofocus and enhanced dynamic range on). Relative cell density was expressed as a function of inhibitor concentration, with respect to DMSO-only control wells. Data where plotted using GraphPad Prism and IC50 values for the biological effect were calculated using the EC50 non-linear fit function using a sigmoidal, 4-parameter logistic, least squares fit with no constraints.
(§2) For IC50 and EC50 data “A” indicates a value of less than 0.2 μM; the symbol “B” indicates a value in the range of from 0.2 μM up to 1 μM; and the symbol “C” indicates a value of greater than 1 μM. ND: no data.

NCI-H226 cells [2] = assay: Proliferation and cell viability assay, Cell Titer One; format: cell-based, human; settings: Cell Titer One assay, 6 days
Protocol: as §1
b) Cell Titer One (Promega, #G3582). The effect of the TEAD inhibitors disclosed herein on cell proliferation was also determined using the Promega Substrate Cell Titer Aqueous One Solution Reagent. The TEAD inhibitors were evaluated for the effects on cell proliferation responder (H226) and non-responder negative control cancer cell lines (CAMA1, H28), as well as non-transformed normal human cells (HUVEC, NHDF). Dissociated cells were resuspend in media (depending on cell line, either in DMEM, RPMI, or EMEM all with 10% FBS, with gentamicin as an antibiotic). Cells were seeded at 100 μL/well at 750 cells per well in 96-well plates and allowed to settle and attach. After an incubation of 24 hrs (37° C., 5% CO2, humidified incubator), 100 μL of test compound-containing media was added. A dilution series of 2000× concentrated stock of test compounds was prepared in DMSO, for final concentrations from 0.1 to 10,000 nM. After addition of test compound-containing media, cells were incubated for 6 days at 37° C., 5% CO2, humidified incubators). To measure cell density, 20 μL of Promega Substrate Cell Titer 96 Aqueous One Solution Reagent (Promega, #G3582) to each well was added according to the manufacturer's instructions. Plates were incubated at 37° C. for usually 3-8 hrs, to reach in the control cells (without compound) an OD of 1.5 at 490 nm. The OD was measured using Vmax [Molecular Devices] spectrophotometer plate reader. Media only-wells were used as background controls and cell densities normalized to DMSO vehicle control. EC50 were taken as the concentration achieving 50% of maximal growth inhibition.
as §2

[3] = Homo sapiens, NCI-H226, responder cell line

SMILES	pEC50 (NCI-H226 cells [1]; [3])	pIC50 (NCI-H226 cells [2]; Homo sapiens, NCI-H226, 144 h)	pEC50 (NCI-H226 cells [1]; responder cell line)	pIC50 (NCI-H226 cells [2])
Cn1cnc(-c2cc(C3(C)NC(=O)NC3=O)ccc2Nc2ccc(C(F)(F)F)cc2)c1 (racemic) [Compound 9, 5-methyl-5-(3-(1-methyl-1H-imidazol-4-yl)-4-((4-(trifluoromethyl)phenyl)amino)phenyl) imidazolidine-2,4-dione]	> 6.70	> 6.70	–	–
Cn1nnc(-c2cc(C3(C)CCNC3=O)ccc2Nc2ccc(C(F)(F)F)cc2)n1 (racemic) [Compound 11, 3-methyl-3-(3-(2-methyl-2H-tetrazol-5-yl)-4-((4-(trifluoromethyl)phenyl)amino)phenyl) pyrrolidin-2-one]	> 6.70	> 6.70	–	–
Cn1cnc(-c2cc(C3(C)C(=O)CNC3=O)ccc2Nc2ccc(C(F)(F)F)cc2)c1 (racemic) [Compound 16, 3-methyl-3-(3-(1-methyl-1H-imidazol-4-yl)-4-((4-(trifluoromethyl)phenyl)amino)phenyl) pyrrolidine-2,4-dione]	> 6.70	–	–	–
Cn1cnc(-c2cc([C@@]3(C)CCNC3=O)ccc2Nc2ccc(C(F)(F)F)cc2)c1 (single isomer, unassigned) [Compound 6, 3-methyl-3-(3-(1-methyl-1H-imidazol-4-yl)-4-((4-(trifluoromethyl)phenyl)amino)phenyl)pyrrolidin-2-one]	–	–	> 6.70	6.00 to 6.70
Cc1nnc(-c2cc([C@@]3(C)CCNC3=O)ccc2Nc2ccc(C(F)(F)F)cc2)o1 (single isomer, unassigned) [Compound 7, 3-methyl-3-(3-(5-methyl-1,3,4-oxadiazol-2-yl)-4-((4-(trifluoromethyl)phenyl)amino)phenyl) pyrrolidin-2-one]	6.00 to 6.70	> 6.70	–	–
Cc1nnc(-c2cc(C3(C)CCNC3=O)ccc2Nc2ccc(C(F)(F)F)cc2)o1 (single isomer, unassigned) [Compound 8, 3-methyl-3-(3-(5-methyl-1,3,4-oxadiazol-2-yl)-4-((4-(trifluoromethyl)phenyl)amino)phenyl) pyrrolidin-2-one]	> 6.70	6.00 to 6.70	–	–
Cn1cnc(-c2cc(C3(C)NC(=O)NC3=O)ccc2Nc2ccc(C(F)(F)F)cc2)c1 (single isomer, unassigned) [Compound 14, 5-methyl-5-(3-(1-methyl-1H-imidazol-4-yl)-4-((4-(trifluoromethyl)phenyl)amino)phenyl)imidazolidine-2,4-dione]	> 6.70	–	–	< 6.00
Cn1cnc(-c2cc([C@@]3(C)C(=O)CNC3=O)ccc2Nc2ccc(C(F)(F)F)cc2)c1 (stereo in doubt) [Compound 17, 3-methyl-3-(3-(1-methyl-1H-imidazol-4-yl)-4-((4-(trifluoromethyl)phenyl)amino)phenyl) pyrrolidine-2,4-dione]	> 6.70	–	–	–
Cn1cnc(-c2cc([C@@]3(C)C(=O)CNC3=O)ccc2Nc2ccc(C(F)(F)F)cc2)c1 (stereo in doubt) [Compound 18, 3-methyl-3-(3-(1-methyl-1H-imidazol-4-yl)-4-((4-(trifluoromethyl)phenyl)amino)phenyl) pyrrolidine-2,4-dione]	–	–	> 6.70	–
Cn1cnc(-c2cc(CN3CCNC3=O)ccc2Nc2ccc(C(F)(F)F)cc2)c1 [Compound 3, 1-(3-(1-methyl-1H-imidazol-4-yl)-4-((4-(trifluoromethyl)phenyl)amino)benzyl)imidazolidin-2-one]	> 6.70	> 6.70	–	–
Cn1cnc(-c2cc(CN3CC(=O)NC3=O)ccc2Nc2ccc(C(F)(F)F)cc2)c1 [Compound 4, 1-(3-(1-methyl-1H-imidazol-4-yl)-4-((4-(trifluoromethyl)phenyl)amino)benzyl) imidazolidine-2,4-dione]	> 6.70	> 6.70	–	–
CC1(c2ccc(Nc3ccc(C(F)(F)F)cc3)c(-c3ncco3)c2)CCNC1=O (centres unmarked) [Compound 10, 3-methyl-3-(3-(oxazol-2-yl)-4-((4-(trifluoromethyl)phenyl)amino)phenyl) pyrrolidin-2-one]	> 6.70	> 6.70	–	–
CC1(c2ccc(Nc3ccc(C(F)(F)F)cc3)c(-c3cccnn3)c2)CCNC1=O (centres unmarked) [Compound 12, 3-methyl-3-(3-(pyridazin-3-yl)-4-((4-(trifluoromethyl)phenyl)amino)phenyl) pyrrolidin-2-one]	> 6.70	< 6.00	–	–
CC1(c2ccc(Nc3ccc(C(F)(F)F)cc3)c(-c3cnccn3)c2)CCNC1=O (centres unmarked) [Compound 13, 3-methyl-3-(3-(pyrazin-2-yl)-4-((4-(trifluoromethyl)phenyl)amino)phenyl) pyrrolidin-2-one]	> 6.70	< 6.00	–	–
Cn1cnc(-c2cc(C3(C)C(=O)NCC3O)ccc2Nc2ccc(C(F)(F)F)cc2)c1 (centres unmarked) [Compound 19, 4-hydroxy-3-methyl-3-(3-(1-methyl-1H-imidazol-4-yl)-4-((4-(trifluoromethyl)phenyl)amino)phenyl) pyrrolidin-2-one]	6.00 to 6.70	–	–	–
Cn1cnc(-c2cc(C3(C)CCNC3=O)ccc2Nc2cccc(C(F)(F)F)c2)c1 (centres unmarked) [Compound 22, 3-methyl-3-(3-(1-methyl-1H-imidazol-4-yl)-4-((3-(trifluoromethyl)phenyl)amino)phenyl) pyrrolidin-2-one]	> 6.70	–	–	–
CC(=O)c1ccc(Nc2ccc(C(F)(F)F)cc2)c(-c2cn(C)cn2)c1 [Compound 23, 1-(3-(1-methyl-1H-imidazol-4-yl)-4-((4-(trifluoromethyl)phenyl)amino)phenyl) ethan-1-one]	> 6.70	–	–	–
CC1(c2ccc(Nc3ccc(C(F)(F)F)cc3)c(Br)c2)CCNC1=O (centres unmarked) [Compound 24]	> 6.70	–	–	–
